Test results: BindingDB's records for doi:10.1016/j.bioorg.2017.04.005 (Shenyang Pharmaceutical University, 2017)
Where a SMILES comes first, the peptide text is derived from it. [ ]: non-standard residue; d: D form. pY = N[C@@H](Cc1ccc(OP(=O)(O)O)cc1)C(=O)O

Target: T1, Histone-lysine N-methyltransferase EHMT2 (Homo sapiens, UniProt Q96KQ7)
T1 sequence (Q96KQ7 whole entry): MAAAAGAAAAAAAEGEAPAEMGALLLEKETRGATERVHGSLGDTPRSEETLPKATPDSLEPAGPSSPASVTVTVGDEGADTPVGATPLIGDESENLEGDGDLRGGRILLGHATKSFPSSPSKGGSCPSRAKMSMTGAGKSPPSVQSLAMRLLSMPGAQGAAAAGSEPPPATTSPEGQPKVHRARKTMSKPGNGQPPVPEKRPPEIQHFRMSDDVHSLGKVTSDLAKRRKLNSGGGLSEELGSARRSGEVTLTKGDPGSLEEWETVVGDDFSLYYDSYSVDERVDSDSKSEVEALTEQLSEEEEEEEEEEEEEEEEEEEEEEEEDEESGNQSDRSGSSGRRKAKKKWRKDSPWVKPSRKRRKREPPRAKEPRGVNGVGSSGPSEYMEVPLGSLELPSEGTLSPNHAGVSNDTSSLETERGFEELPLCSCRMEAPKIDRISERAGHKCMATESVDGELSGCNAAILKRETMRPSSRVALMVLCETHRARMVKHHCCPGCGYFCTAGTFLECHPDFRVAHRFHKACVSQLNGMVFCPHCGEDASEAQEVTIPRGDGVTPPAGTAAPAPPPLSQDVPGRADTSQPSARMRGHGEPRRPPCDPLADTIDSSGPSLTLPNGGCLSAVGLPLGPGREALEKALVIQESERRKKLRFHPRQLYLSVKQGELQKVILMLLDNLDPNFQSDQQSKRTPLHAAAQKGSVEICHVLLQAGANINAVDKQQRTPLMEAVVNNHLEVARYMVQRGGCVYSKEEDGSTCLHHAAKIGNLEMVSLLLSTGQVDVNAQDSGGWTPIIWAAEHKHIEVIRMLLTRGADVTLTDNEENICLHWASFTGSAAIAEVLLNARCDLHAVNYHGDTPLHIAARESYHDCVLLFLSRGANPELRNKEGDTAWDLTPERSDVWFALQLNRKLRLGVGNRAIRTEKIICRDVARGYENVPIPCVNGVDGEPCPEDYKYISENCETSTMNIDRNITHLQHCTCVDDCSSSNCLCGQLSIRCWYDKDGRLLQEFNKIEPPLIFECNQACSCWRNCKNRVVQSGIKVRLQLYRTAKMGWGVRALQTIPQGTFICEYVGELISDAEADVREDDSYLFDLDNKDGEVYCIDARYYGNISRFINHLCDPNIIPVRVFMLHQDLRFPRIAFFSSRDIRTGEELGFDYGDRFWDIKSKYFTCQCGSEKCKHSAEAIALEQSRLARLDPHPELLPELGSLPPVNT
Assay: Enzymatic Assay
Details: pH 8.5; 25 °C
Method: Biochemical activity of G9a was measured as described [Kubicek et al., Mol. Cell, 25:473-481]. Assays were performed in white, opaque 384-well plates coated with Neutravidin (Pierce Biotechnology). Brd 4770 was used as a positive control. Test compounds were diluted to 12 μg/ml in Baffer A (50 mM Tris-HCl pH 8.5 containing 4% DMSO) and 10 μl was dispensed into the wells. Blank and control wells received only compound buffer. GST-G9a at 10 μg/ml and SAM at 40 μM were diluted in Buffer B (50 mM Tris HCl pH 8.5/10 mM DTT) and added in a volume of 20 μL. Blank wells received Tris/DTT buffer only. The reactions were initiated by the addition of 800 nM H3 (1-20)-cysbiotin substrate in Buffer C (50 mM Tris pH 8.5) in a volume of 10 μL, and incubated at room temperature for 60 min. The plates were washed 3 times with 100 μL of Wash Buffer (50 mM Tris pH 7.4, 150 mM NaCl, 0.05% Tween 20, 0.2% BSA). Next, 50 μl of Fluoroimmunoassay (FI) Buffer (50 mM Tris HCl pH 7.8, 150 mM NaCl, 0.05% Tween 40, 25 μM DTPA, 0.2% BSA, 0.05% BGG) containing 5 ng α-2X-di-meth H3-K9 and 5 ng goat anti-rabbit Eu chelate (Perkin Elmer Life Sciences) was added to all wells of the plate, and the plate was incubated for an additional hour at room temperature. The plates were washed 3 times with 100 μL of Wash Buffer, and 50 μL of Enhancement Solution (Perkin Elmer Life Sciences) was added to each well. Time resolved fluorescence was measured after 45 min on a Viewlux Microplate Imager (Perkin Elmer Life Sciences) imaging for 15 s with a 354 μs window, 400 μs delay, excitation at 360 nm, and emission at 618 nm.

First: CC(C)[C@H](NC(=O)[C@H](CO)NC(=O)[C@H](CO)NC(=O)[C@@H]1CCCN1)C(=O)N[C@@H](Cc1ccc(OP(=O)(O)O)cc1)C(=O)N[C@H](C(=O)N1CCC[C@H]1C(=O)N[C@@H](CC(=O)O)C(=O)N[C@@H](CCC(=O)O)C(=O)N[C@@H](Cc1c[nH]c2ccccc12)C(=O)N[C@@H](CCC(=O)O)C(=O)O)C(C)C [IR-pep] (H-PSSV[pY]VPDEWE-OH)
Second: CC(C)C[C@H](NC(=O)[C@H](CC(N)=O)NC(=O)[C@@H](N)CC(=O)O)C(=O)N[C@@H](Cc1ccc(O)cc1)C(=O)N[C@@H](Cc1ccc(OP(=O)(O)O)cc1)C(=O)N[C@@H](Cc1c[nH]c2ccccc12)C(=O)N[C@@H](CC(=O)O)C(=O)N[C@@H](CCC(N)=O)C(=O)N[C@@H](CC(=O)O)C(=O)N1CCC[C@H]1C(=O)N1CCC[C@H]1C(=O)O [ErbB2-pep] (H-DNLY[pY]WDQDPP-OH)
The IC50 of the first is 1.7-fold higher: 26.2 µM for the first, 15.3 µM for the second.

`O=S(=O)(Nc1ccc2c(c1)nc(-c1ccccc1)n2CCCc1ccccc1)c1ccc(F)cc1` [4-Fluoro-N-(2-phenyl-1-(3-phenylpropyl)-1H-benzo[d]imidazol-5-yl)benzenesulfonamide (17)] and `N#Cc1ccc(S(=O)(=O)Nc2ccc3c(c2)nc(-c2ccccc2)n3CCCc2ccccc2)cc1` [4-Cyano-N-(2-phenyl-1-(3-phenylpropyl)-1H-benzo[d]imidazol-5-yl)benzenesulfonamide (18)] are within 1.5-fold of each other in IC50: 16.1 µM for the first, 18.8 µM for the second.

First: O=C(Nc1ccc2nc(-c3ccccc3)oc2c1)c1ccccc1F [2-Fluoro-N-(2-phenylbenzo[d]oxazol-6-yl)benzamide (11)]
Second: COc1ccccc1C(=O)Nc1ccc2nc(-c3ccccc3)oc2c1 [2-Methoxy-N-(2-phenylbenzo[d]oxazol-6-yl)benzamide (10)]
The IC50 of the first is higher: over 40 µM for the first, 12.8 µM for the second.

`N#Cc1ccc(S(=O)(=O)Nc2ccc3nc(-c4ccccc4)oc3c2)cc1` [4-Cyano-N-(2-phenylbenzo[d]oxazol-6-yl)benzenesulfonamide (7)] and `CC(C)(C)c1ccc(S(=O)(=O)Nc2ccc3nc(-c4ccccc4)oc3c2)cc1` [4-(tert-Butyl)-N-(2-phenylbenzo[d]oxazol-6-yl)benzenesulfonamide (9)] are within 1.5-fold of each other in IC50: 30.4 µM for the first, 36.3 µM for the second.

Compared with `CC(C)[C@H](NC(=O)[C@@H](N)CCC(=O)O)C(=O)N[C@@H](CO)C(=O)N[C@@H](Cc1ccccc1)C(=O)N[C@@H](Cc1ccc(OP(=O)(O)O)cc1)C(=O)N[C@@H](Cc1ccc(O)cc1)C(=O)N[C@@H](CO)C(=O)N[C@@H](CCC(=O)O)C(=O)N[C@@H](CCC(=O)O)C(=O)N[C@@H](CC(N)=O)C(=O)N[C@@H](CCCCN)C(=O)O` [IGF1R-pep] (H-EVSF[pY]YSEENK-OH), `COC(=O)c1ccc2c(c1)nc(NC(=O)c1ccccc1)n2CCCc1ccccc1` [Brd4470] is 3.1-fold lower in IC50: 19 µM for the first, 6.1 µM for the second. The second is the more potent here.

First: O=C(Nc1ccc2c(c1)nc(-c1ccccc1)n2CCCc1ccccc1)c1ccccc1F [2-Fluoro-N-(2-phenyl-1-(3-phenylpropyl)-1H-benzo[d]imidazol-5-yl)benzamide (21)]
Second: COc1ccccc1C(=O)Nc1ccc2c(c1)nc(-c1ccccc1)n2CCCc1ccccc1 [2-Methoxy-N-(2-phenyl-1-(3-phenylpropyl)-1H-benzo[d]imidazol-5-yl)benzamide (23)]
The IC50 of the first is 5.5-fold higher: 9.59 µM for the first, 1.75 µM for the second. The second is the more potent here.

First: O=S(=O)(Nc1ccc2nc(-c3ccccc3)oc2c1)c1ccccc1Br [2-Bromo-N-(2-phenylbenzo[d]oxazol-6-yl)benzenesulfonamide (8)]
Second: O=C(Nc1ccc2nc(-c3ccccc3)oc2c1)c1cccc(Br)c1 [3-Bromo-N-(2-phenylbenzo[d]oxazol-6-yl)benzamide (12)]
The IC50 of the first is higher: over 40 µM for the first, 15.3 µM for the second.

First: O=[N+]([O-])c1cccc(S(=O)(=O)Nc2ccc3c(c2)nc(-c2ccccc2)n3CCCc2ccccc2)c1 [3-Nitro-N-(2-phenyl-1-(3-phenylpropyl)-1H-benzo[d]imidazol-5-yl)benzenesulfonamide (13)]
Second: O=S(=O)(Nc1ccc2c(c1)nc(-c1ccccc1)n2CCCc1ccccc1)c1ccccc1Br [2-Bromo-N-(2-phenyl-1-(3-phenylpropyl)-1H-benzo[d]imidazol-5-yl)benzenesulfonamide (19)]
The IC50 of the first is 1.7-fold higher: 35.4 µM for the first, 20.8 µM for the second.

Compared with `O=C(Nc1ccc2c(c1)nc(-c1ccccc1)n2CCCc1ccccc1)c1ccc(-c2ccccc2)cc1` [N-(2-phenyl-1-(3-phenylpropyl)-1H-benzo[d]imidazol-5-yl)-[1,1'-biphenyl]-4-carboxamide (24)], `O=C(Nc1ccc2c(c1)nc(-c1ccccc1)n2CCCc1ccccc1)c1cccc(Br)c1` [3-Bromo-N-(2-phenyl-1-(3-phenylpropyl)-1H-benzo[d]imidazol-5-yl)benzamide (22)] is 9.2-fold lower in IC50: 12.2 µM for the first, 1.32 µM for the second. The second is the more potent here.

`O=S(=O)(Nc1ccc2c(c1)nc(-c1ccccc1)n2CCCc1ccccc1)c1ccc(C(F)(F)F)cc1` [N-(2-phenyl-1-(3-phenylpropyl)-1H-benzo[d]imidazol-5-yl)-4-(trifluoromethyl)benzenesulfonamide (15)] and `O=S(=O)(Nc1ccc2c(c1)nc(-c1ccccc1)n2CCCc1ccccc1)c1ccc(OC(F)(F)F)cc1` [N-(2-phenyl-1-(3-phenylpropyl)-1H-benzo[d]imidazol-5-yl)-4-(trifluoromethoxy)benzenesulfonamide (16)] are within 1.5-fold of each other in IC50: 16 µM for the first, 21.9 µM for the second.

Compared with `COc1ccccc1S(=O)(=O)Nc1ccc2c(c1)nc(-c1ccccc1)n2CCCc1ccccc1` [2-Methoxy-N-(2-phenyl-1-(3-phenylpropyl)-1H-benzo[d]imidazol-5-yl)benzenesulfonamide (14)], `CC(C)(C)c1ccc(S(=O)(=O)Nc2ccc3c(c2)nc(-c2ccccc2)n3CCCc2ccccc2)cc1` [4-(tert-Butyl)-N-(2-phenyl-1-(3-phenylpropyl)-1H-benzo[d]imidazol-5-yl)benzenesulfonamide (20)] is 6.2-fold higher in IC50: 2.63 µM for the first, 16.3 µM for the second.
